Results on one molecule are retold here after publication PMC12320245 (International Journal of Biological Sciences, 2025).

One assay concerns astrocytes. Kind of assay: Lysosomal zinc (FluoZin-3 with LysoTracker). In kind it is cell-based. As to conditions: 10 μM AMX for 30 minutes.
In assay [1] the test system is primary hippocampal neurons. Kind of assay: Scratch injury: cAMP ELISA. It is filed as cell-based, rat. Conditions: 10 μM AMX immediately after scratch, 6 hours post-injury. The procedure:
Primary hippocampal neurons were obtained from embryonic day 18 (E18) Sprague-Dawley rat embryos. Pregnant rats were anesthetized using 2-3% isoflurane in a gas mixture of 70% nitrous oxide and 30% oxygen. Following euthanasia, the hippocampi were carefully dissected, minced, and enzymatically dissociated using TrypLE Express (Gibco, NY, USA) for 10 minutes at 37°C. The tissue was further mechanically dissociated using fire-polished glass pipettes, and the resulting cell suspension was filtered through a 70 μm cell strainer to remove debris. Neurons were seeded at a density of 3 × 10^5 cells per well in 24-well plates pre-coated with poly-L-lysine (Sigma-Aldrich, Saint Louis, MO, USA). Cells were maintained in neurobasal medium supplemented with B-27 (Thermo Fisher Scientific, Waltham, MA, USA), GlutaMAX (Gibco), and penicillin-streptomycin. The cultures were incubated at 37.5°C in a humidified atmosphere containing 5% CO₂. After seven days of growth, neurons were fixed with 4% paraformaldehyde (PFA) for 15 minutes at room temperature and subsequently stored at 4°C until their further use for immunostaining. A scratch injury model was used to mimic TBI in vitro. […] After the treatment period, neuronal damage and recovery were assessed using appropriate evaluation methods. […]
In general terms: An ELISA detects its analyte on a solid surface through an enzyme-linked reagent.

Assay [2] deals with hippocampus of TBI rats. Kind of assay: Controlled cortical impact TBI: hippocampal cAMP ELISA. It is filed as in vivo. As to conditions: rat, 3 hours post-TBI, AMX 100 mg/kg i.p. As to the method:
(§1) This study used male Sprague-Dawley rats weighing 300-350 g and aged 8 weeks, obtained from DBL Co. (Chungcheongbuk-do, Republic of Korea). The rats were housed in a controlled environment with a temperature of 20 ± 2 °C, a relative humidity of 55 ± 5%, and a 12-hour light/dark cycle. They were provided ad libitum access to food and water. To minimize stress associated with transportation, animals underwent a one-week acclimatization period before the start of the experiments. All experimental procedures were conducted in compliance with the guidelines of the National Institutes of Health for the care and use of laboratory animals and were approved by the Hallym University Institutional Animal Care and Use Committee (protocol # Hallym 2022-23, approved on July 15, 2022). This manuscript follows the principles outlined in the Animal research: reporting in vivo experiments (ARRIVE) guidelines.
A controlled cortical impact (CCI) model was used to induce TBI in rats. Animals were anesthetized with 1-1.5% isoflurane in a 30:70 oxygen-to-nitrous oxide mixture and securely positioned in a stereotaxic frame. A 3 mm craniotomy was performed using a portable drill at a site 2.8 mm lateral to the midline and 3.0 mm posterior to Bregma. […]

Assay [3] concerns hippocampus of TBI rats. Kind of assay: Controlled cortical impact TBI: hippocampal Western blot. It is filed as in vivo, rat. As to the method: as §1
A controlled cortical impact (CCI) model was used to induce TBI in rats. Animals were anesthetized with 1-1.5% isoflurane in a 30:70 oxygen-to-nitrous oxide mixture and securely positioned in a stereotaxic frame. A 3 mm craniotomy was performed using a portable drill at a site 2.8 mm lateral to the midline and 3.0 mm posterior to Bregma. TBI was induced using an Impact One™ Stereotaxic Impactor (Leica Biosystems) equipped with a 3 mm flat-tip, set to deliver an impact at a velocity of 5 m/s and a depth of 3 mm. Throughout the procedure, body temperature was maintained at 36-37.5°C using a homeothermic blanket system to prevent hypothermia. […] At designated time points (3 hours, 24 hours, or 2 weeks post-injury), animals were euthanized via transcardial perfusion with saline, followed by 4% paraformaldehyde (PFA). Brains were post-fixed in 4% PFA for 1 hour, cryoprotected in 30% sucrose, and sectioned at a 30 μm thickness using a cryostat microtome (CM1850; Leica, Wetzlar, Germany). Brain sections were stored in cryoprotectant solution at 4°C until further analysis.
Hippocampal samples were homogenized in a lysis buffer containing RIPA buffer (IBS-BR002, iNtRON, Republic of Korea), phosphatase inhibitor (Sigma, USA), and protease inhibitor (Sigma, USA). The homogenates were centrifuged at 14,000 × g for 20 minutes at 4°C, and the supernatants were collected. Protein concentrations were determined using the Bradford protein assay. For analysis, 25 μg of protein from each sample was mixed with SDS loading buffer, separated through SDS-PAGE, and transferred onto PVDF membranes. Membranes were blocked for 2 hours at room temperature with either 5% skim milk or 3% BSA to minimize nonspecific binding. Subsequently, the membranes were incubated overnight at 4°C with primary antibodies diluted in blocking buffer. The following primary antibodies were used: p-p38 MAPK (1:1000, Cell Signaling), p-eIF2α (1:1000, Cell Signaling), p-PERK (1:1000, Cell Signaling), LAMP2 (1:1000, Invitrogen), LC3B (1:1000, Invitrogen), IL-1β (1:500, Gene Tex), TNF-α (1:500, Abcam), and β-actin (1:10,000, Cell Signaling). After primary antibody incubation, membranes were washed in TBS-T (Bio-Rad) and incubated with secondary antibodies for 1 hour at room temperature. Signals were visualized using a chemiluminescence detection system and captured with a bioimaging instrument (Amersham Imager 680, Marlborough, USA).
In general terms: In western blotting, separated proteins are transferred to a membrane and probed.

Where [4] appears, read: hippocampus, 24 hours after TBI.
The mark [5] stands for this setting: rat hippocampus, 24 hours post-TBI.
The mark [6] stands for this setting: rat hippocampus, 24 hours post-TBI, vs TBI-vehicle.

SMILES strings stand for the structures.

Regarding `CC(C)c1ccc2oc3nc(N)c(C(=O)O)cc3c(=O)c2c1` [AMX, amlexanox], the “lysosomal zinc (FluoZin-3 fluorescence)” value in the assay on astrocytes was “significant increase in zinc fluorescence within lysosomes”. Moreover, the “cAMP levels after scratch injury (ELISA)” value in assay [1] was “restored cAMP and p-PKA levels”. Moreover, in the assay on hippocampus of TBI rats [2], the “hippocampal cAMP levels (ELISA)” value is on record as “restored cAMP levels to values comparable to sham controls”. Besides, in the assay with hippocampus of TBI rats [3] (setting [4]), the “IL-1β expression (Western blot)” value was “markedly reduced the expression of both cytokines” and the “TNF-α expression (Western blot)” value is on record as “markedly reduced the expression of both cytokines”. In the assay on hippocampus of TBI rats [3] (setting [5]), the LAMP2 expression result is “preserved LAMP2 and LC3B expression”; the LC3B expression entry is “preserved LAMP2 and LC3B expression”. Further, in the assay on hippocampus of TBI rats [3] (setting [6]), the “phosphorylation of PERK” value is listed as “significantly reduced the phosphorylation levels”, the “phosphorylation of eIF2α” value is “significantly reduced the phosphorylation levels” and the “phosphorylation of p38 MAPK” value is reported as “significantly reduced the phosphorylation levels”.
